Measurements: patent publication US10251889B2, “Substituted pyrazolo[1,5-a]pyrimidine compounds as Trk kinase inhibitors” (Array BioPharma, Inc., priority 2009, dated 2019)

Target: Jak2 (human Jak2 kinase domain, amino acids 808-1132) (Homo sapiens (Human), UniProt O60674)
Assay: Jak2 inhibition assay (Omnia kinase assay)
Assay type: biochemical
Settings: read-out: Jak2 Enzyme (% inhibition at 1000 nM), Table 1; 1000 nM test compound

Chain of Jak2 (human Jak2 kinase domain, amino acids 808-1132) (O60674 808-1132): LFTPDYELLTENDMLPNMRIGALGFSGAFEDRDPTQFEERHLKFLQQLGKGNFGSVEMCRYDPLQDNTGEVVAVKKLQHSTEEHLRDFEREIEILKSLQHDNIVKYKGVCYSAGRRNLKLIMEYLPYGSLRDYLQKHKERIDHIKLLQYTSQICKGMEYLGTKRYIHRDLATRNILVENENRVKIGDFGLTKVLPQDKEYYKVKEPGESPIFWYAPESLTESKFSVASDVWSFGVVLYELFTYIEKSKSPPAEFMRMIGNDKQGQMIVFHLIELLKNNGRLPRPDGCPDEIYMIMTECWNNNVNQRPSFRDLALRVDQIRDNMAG

SMILES	inhibition at 1 µM [%]
COc1ncc(F)cc1[C@H]1CCCN1c1ccn2ncc(C(=O)NC3CCN(S(C)(=O)=O)CC3)c2n1 [Example 162, (R)-5-(2-(5-fluoro-2-methoxypyridin-3-yl)pyrrolidin-1-yl)-N-(1-(methylsulfonyl)piperidin-4-yl)pyrazolo[1,5-a]pyrimidine-3-carboxamide]	66.2
CC(C)NC(=O)c1cnn2ccc(N3C[C@@H](O)C[C@@H]3c3cccc(F)c3)nc12 [Example 217, 5-((2R,4S)-2-(3-fluorophenyl)-4-hydroxypyrrolidin-1-yl)-N-isopropylpyrazolo[1,5-a]pyrimidine-3-carboxamide]	61.7
O=C(NCCO)c1cnn2ccc(N3CCC[C@@H]3c3cncc(F)c3)nc12 [Example 112, (R)-5-(2-(5-fluoropyridin-3-yl)pyrrolidin-1-yl)-N-(2-hydroxyethyl)pyrazolo[1,5-a]pyrimidine-3-carboxamide]	3.2
COc1ncc(F)cc1[C@H]1CCCN1c1ccn2ncc(C(N)=O)c2n1 [Example 82, (R)-5-(2-(5-fluoro-2-methoxypyridin-3-yl)pyrrolidin-1-yl)pyrazolo[1,5-a]pyrimidine-3-carboxamide]	10.7
CC(C)(O)CNC(=O)c1cnn2ccc(N3CCC[C@@H]3c3cncc(F)c3)nc12 [Example 111, (R)-5-(2-(5-fluoropyridin-3-yl)pyrrolidin-1-yl)-N-(2-hydroxy-2-methylpropyl)pyrazolo[1,5-a]pyrimidine-3-carboxamide]	0.1
CC1(C)OCC(COc2cc(F)cc([C@H]3CCCN3c3ccn4ncc(C(=O)NC5CC5)c4n3)c2)O1 (stereo partly drawn) [Example 206, N-cyclopropyl-5-((2R)-2-(3-((2,2-dimethyl-1,3-dioxolan-4-yl)methoxy)-5-fluorophenyl)pyrrolidin-1-yl)pyrazolo[1,5-a]pyrimidine-3-carboxamide]	12.6
O=C(N[C@@H]1CCC[C@@H]1O)c1cnn2ccc(N3CCC[C@@H]3c3cncc(F)c3)nc12 [Example 135, 5-((R)-2-(5-fluoropyridin-3-yl)pyrrolidin-1-y1)-N-((1R,2S)-2-hydroxycyclopentyl)pyrazolo[1,5-a]pyrimidine-3-carboxainide]	-1
O=C(c1cnn2ccc(N3CCC[C@@H]3c3cncc(F)c3)nc12)N1CCC1 [Example 126, (R)-azetidin-1-yl(5-(2-(5-fluoropyridin-3-yl)pyrrolidin-1-yl)pyrazolo[1,5-a]pyrimidin-3-yl)methanone]	-1
O=C(NC1CC1)c1cnn2ccc(N3CCC[C@@H]3c3cccc(F)c3)nc12 [Example 37, (R)—N-cyclopropyl-5-(2-(3-fluorophenyl)pyrrolidin-1-yl)pyrazolo[1,5-a]pyrimidine-3-carboxamide]	25
O=C(N[C@@H]1CCCC[C@H]1O)c1cnn2ccc(N3CCC[C@@H]3c3cncc(F)c3)nc12 [Example 136, 5-((R)-2-(5-fluoropyridin-3-yl)pyrrolidin-1-yl)-N-((1R,2R)-2-hydroxycyclohexyl)pyrazolo[1,5-a]pyrimidine-3-carboxamide]	4.8
C[C@H](NC(=O)c1cnn2ccc(N3CCC[C@@H]3c3cncc(F)c3)nc12)C(F)(F)F [Example 130, 5-((R)-2-(5-fluoropyridin-3-yl)pyrrolidin-1-yl)-N-((S)-1,1,1-trifluoropropan-2-yl)pyrazolo[1,5-a]pyrimidine-3-carboxamide]	27.9
COCC(O)CNC(=O)c1cnn2ccc(N3CCCC3c3cncc(F)c3)nc12 [Example 119, 5-((R)-2-(5-fluoropyridin-3-yl)pyrrolidin-1-yl)-N-(2-hydroxy-3-methoxypropyl)pyrazolo[1,5-a]pyrimidine-3-carboxamide]	1.7
COc1ncc(F)cc1[C@H]1CCCN1c1ccn2ncc(C(=O)NCCCNC(=O)OC(C)(C)C)c2n1 [Example 141, (R)-tert-butyl 3-(5-(2-(5-fluoro-2-methoxypyridin-3-yl)pyrrolidin-1-yl)pyrazolo[1,5-a]pyrimidine-3-carboxamido)propylcarbamate]	9.4
O=C(NC1CCOCC1)c1cnn2ccc(N3CCC[C@@H]3c3cncc(F)c3)nc12 [Example 72, (R)-5-(2-(5-fluoropyridin-3-yl)pyrrolidin-1-yl)-N-(tetrahydro-2H-pyran-4-yl)pyrazolo[1,5-a]pyrimidine-3-carboxamide]	11.7
COc1ncc(F)cc1[C@H]1CCCN1c1ccn2ncc(C(=O)NCCCO)c2n1 [Example 148, (R)-5-(2-(5-fluoro-2-methoxypyridin-3-yl)pyrrolidin-1-yl)-N-(3-hydroxypropyl)pyrazolo[1,5-a]pyrimidine-3-carboxamide]	44.3

Results, then the compound that gave them:

inhibition at 1 µM [%]	SMILES
78.9	O=C(NC1CCOCC1)c1cnn2ccc(N3CCC[C@@H]3c3cc(F)ccc3F)nc12 [Example 20, (R)-5-(2-(2,5-difluorophenyl)pyrrolidin-1-yl)-N-(tetrahydro-2H-pyran-4-yl)pyrazolo[1,5-a]pyrimidine-3-carboxamide]
15.1	CONC(=O)c1cnn2ccc(N3CCC[C@@H]3c3cccc(F)c3)nc12 [Example 75]
41.4	O=C(NC1CC1)c1cnn2ccc(N3CCC[C@@H]3c3cc(F)ccc3F)nc12 [Example 13, (R)—N-cyclopropyl-5-(2-(2,5-difluorophenyl)pyrrolidin-1-yl)pyrazolo[1,5-a]pyrimidine-3-carboxamide]
7.4	CC(C)[C@H](CO)NC(=O)c1cnn2ccc(N3CCC[C@@H]3c3cncc(F)c3)nc12 [Example 122, 5-((R)-2-(5-fluoropyridin-3-yl)pyrrolidin-1-yl)-N-((R)-1-hydroxy-3-methylbutan-2-yl)pyrazolo[1,5-a]pyrimidine-3-carboxamide]
26.2	C[C@@H](CO)NC(=O)c1cnn2ccc(N3CCC[C@@H]3c3cc(F)ccc3F)nc12 [Example 177, 5-((R)-2-(2,5-difluorophenyl)pyrrolidin-1-yl)-N-((S)-1-hydroxypropan-2-yl)pyrazolo[1,5-a]pyrimidine-3-carboxamide]
9.3	Cc1ncc(F)cc1[C@H]1CCCN1c1ccn2ncc(C(=O)NCCO)c2n1 [Example 188, (R)-5-(2-(5-fluoro-2-methylpyridin-3-yl)pyrrolidin-1-yl)-N-(2-hydroxyethyl)pyrazolo[1,5-a]pyrimidine-3-carboxamide]
-0.8	CC(C)(C)[C@@H](CO)NC(=O)c1cnn2ccc(N3CCC[C@@H]3c3cc(F)ccc3F)nc12 [Example 180, 5-((R)-2-(2,5-difluorophenyl)pyrrolidin-1-yl)-N-((S)-1-hydroxy-3,3-dimethylbutan-2-yl)pyrazolo[1,5-a]pyrimidine-3-carboxamide]
12.9	Cn1ccc(NC(=O)c2cnn3ccc(N4CCC[C@@H]4c4cc(F)ccc4F)nc23)n1 [Example 6, (R)-5-(2-(2,5-difluorophenyl)pyrrolidin-1-yl)-N-(1-methyl-1H-pyrazol-3-yl)pyrazolo[1,5-a]pyrimidine-3-carboxamide]
8.9	COc1ncc(F)cc1[C@H]1CCCN1c1ccn2ncc(C(=O)NC[C@@H](O)CO)c2n1 [Example 150, N-((R)-2,3-dihydroxypropyl)-5-((R)-2-(5-fluoro-2-methoxypyridin-3-yl)pyrrolidin-1-yl)pyrazolo[1,5-a]pyrimidine-3-carboxamide]
16.9	CC[C@@H](CO)NC(=O)c1cnn2ccc(N3CCC[C@@H]3c3cc(F)ccc3F)nc12 [Example 178, 5-((R)-2-(2,5-difluorophenyl)pyrrolidin-1-yl)-N-((S)-1-hydroxybutan-2-yl)pyrazolo[1,5-a]pyrimidine-3-carboxamide]
-4.5	COCC(C)NC(=O)c1cnn2ccc(N3CCCC3c3cncc(F)c3)nc12 [Example 118, 5-((R)-2-(5-fluoropyridin-3-yl)pyrrolidin-1-yl)-N-(1-methoxypropan-2-yl)pyrazolo[1,5-a]pyrimidine-3-carboxamide]
19.1	O=C(Nc1ccccn1)c1cnn2ccc(N3CCC[C@@H]3c3cc(F)ccc3F)nc12 [Example 2, (R)-5-(2-(2,5-difluorophenyl)pyrrolidin-1-yl)-N-(pyridin-2-yl)pyrazolo[1,5-a]pyrimidine-3-carboxamide]
5	O=C(NCCn1ccnc1)c1cnn2ccc(N3CCC[C@@H]3c3cc(F)ccc3F)nc12 [Example 28, (R)—N-(2-(1H-imidazol-1-yl)ethyl)-5-(2-(2,5-difluorophenyl)pyrrolidin-1-yl)pyrazolo[1,5-a]pyrimidine-3-carboxamide]
62.8	CC(C)NC(=O)c1cnn2ccc(N3CCC[C@@H]3c3cc(F)cn(C)c3=O)nc12 [Example 227, (R)-5-(2-(5-fluoro-1-methyl-2-oxo-1,2-dihydropyridin-3-yl)pyrrolidin-1-yl)-N-isopropylpyrazolo[1,5-a]pyrimidine-3-carboxamide]
25.7	CC(C)(CO)NC(=O)c1cnn2ccc(N3CCC[C@@H]3c3cc(F)ccc3F)nc12 [Example 8, (R)-5-(2-(2,5-difluorophenyl)pyrrolidin-1-yl)-N-(1-hydroxy-2-methylpropan-2-yl)pyrazolo[1,5-a]pyrimidine-3-carboxamide]
33.1	O=C(NC[C@@H](O)CO)c1cnn2ccc(N3CCC[C@@H]3c3cc(F)ccc3C(F)(F)F)nc12 [Example 63, N—((R)-2,3-dihydroxypropyl)-5-((R)-2-(5-fluoro-2-(trifluoromethyl)phenyl)pyrrolidin-1-yl)pyrazolo[1,5-a]pyrimidine-3-carboxamide]
73.7	CC1(O)CCC(NC(=O)c2cnn3ccc(N4CCC[C@@H]4c4cc(F)ccc4F)nc23)CC1 (single isomer, unassigned; diastereomer 1) [Example 50]
9.8	C[C@@H](O)CNC(=O)c1cnn2ccc(N3CCCC3c3cc(F)ccc3F)nc12 (stereo in doubt) [Example 167, 5-((R)-2-(2,5-difluorophenyl)pyrrolidin-1-yl)-N-(2-hydroxypropyl)pyrazolo[1,5-a]pyrimidine-3-carboxamide]
